Test results published in patent US5051534A, “Novel cyclopropyl squalene derivatives and their use as inhibitors of cholesterol synthesis” (Merrell Dow Pharmaceuticals Inc., priority 1990, dated 1991).

Biological target: T1, squalene epoxidase (Rattus norvegicus, UniProt P52020)
T1 construct: Microsomes, prepared by ultracentrifugation of homogenates of rat liver; from tissue; host or cells: rat liver microsomes, incubated with the high speed supernatant fraction
Test: Inhibition of squalene epoxidase in rat liver microsomes (3H-squalene incubation, TLC or HPLC radioactivity)
Format: biochemical
Settings: 37° C., 45 minutes, 60 μM 3H-squalene, 2.0 mM NADPH, 0.01 mM FAD, compounds tested at >0.0 to 100.0 μM
Method: The following assay is used to test compounds for their ability to inhibit 2,3-oxidosqualene lanosterol-cyclase (squalene cyclase) or squalene epoxidase. Microsomes, prepared by ultracentrifugation of homogenates of rat liver, are incubated at 37° C. for 45 minutes in the presence of 60 μM ^3 H-squalene, 2.0 mM NADPH, 0.01 mM FAD, and the high speed supernatant fraction from the microsomal preparation. Blanks, in which NADPH has been omitted, are run simultaneously with the test compounds. Compounds are tested at concentrations of >0.0 to 100.0 μM.
Following incubation the samples are saponified, standards are added to each sample, and then the reaction products are extracted into hexane. The hexane extracts are dried and then the dried extracts are redissolved in chloroform. […] Spots containing the reaction products are scraped from the TLC plates and counted for radioactivity in a scintillation counter. An IC50 is finally calculated.
Incubation reactions are stopped by the addition of chloroform:methanol, standards are added and the reaction products and standards are extracted into chloroform. […] Chromatographic peaks containing reaction products are monitored for radioactivity with a flow-through scintillation counter connected in series with the HPLC column. An IC50 (Inhibitory Concentration) is calculated based on the radioactivity in controls and samples. […]

T1 sequence (P52020 whole entry): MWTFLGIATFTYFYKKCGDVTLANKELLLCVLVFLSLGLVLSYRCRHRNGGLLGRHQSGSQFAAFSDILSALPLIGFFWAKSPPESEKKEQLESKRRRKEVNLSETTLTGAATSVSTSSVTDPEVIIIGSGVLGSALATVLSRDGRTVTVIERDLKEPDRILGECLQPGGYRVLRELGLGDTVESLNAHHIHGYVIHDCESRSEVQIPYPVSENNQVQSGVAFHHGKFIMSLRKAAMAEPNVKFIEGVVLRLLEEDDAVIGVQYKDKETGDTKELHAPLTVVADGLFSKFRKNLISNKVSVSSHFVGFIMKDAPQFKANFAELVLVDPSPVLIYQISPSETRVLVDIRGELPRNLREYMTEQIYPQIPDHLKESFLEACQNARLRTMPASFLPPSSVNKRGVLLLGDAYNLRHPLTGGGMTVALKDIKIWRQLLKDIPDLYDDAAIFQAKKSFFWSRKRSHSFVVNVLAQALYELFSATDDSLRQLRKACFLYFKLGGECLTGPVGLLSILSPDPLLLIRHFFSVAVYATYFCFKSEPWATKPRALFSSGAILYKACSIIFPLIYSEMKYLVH

For `CC(C)=CCC/C(C)=C/CC/C(C)=C/CC/C=C(\C)CC/C=C(\C)CCCOC1CC1` [Compound 1, 4,8,13,17,21-Pentamethyl-4,8,12,16,20-docosapentaen-l-ol cyclopropyl ether], the IC50 was 42 µM.
